≈ marks a conversion by molar mass, not a printed value. Entries after “also recorded” stand apart in the source; their conditions may differ.
What was measured:
A. flavus FA21436 = assay: In vitro antifungal activity, serial agar dilution; conditions: Aspergillus flavus, FA21436, 40 h, pH 7
Procedure: (§3) In vitro antifungal activity was determined against various fungi by the serial agar dilution method. Sabouraud dextrose agar (pH 7.0) was used for the experiment. The inoculum size was adjusted to 10^6 CFU/ml. After incubation at 28° C. for 40 hours, the minimum inhibitory concentration (MIC) was examined.

[1] = test system: P388/VCR (vincristine-resistant subline of P388) cells; assay: In vitro cytotoxicity (Table 6)
Procedure: (§1) BU-3285T was tested for in vitro cytotoxicity against several murine and human tumor cell lines and for in vivo antitumor activity in mice. Mitomycin C was used as a reference compound in both in vitro and in vivo experiments. B16-F10 (murine melanoma) and Moser (human colorectal carcinoma) cells were grown to the logarithmic phase in an enriched Eagle minimum essential medium supplemented with fetal calf serum (FCS, 10%) and kanamycin (60 μg/ml); HCT-116 (human colon carcinoma) cells were in McCoy's 5A medium supplemented with FCS (10%), penicillin (100 U/ml) and streptomycin (100 μg/ml); and P388 (murine lymphocytic leukemia) cells and its vincristine-resistant subline (P388/VCR) were in RPMI 1640 medium supplemented with FCS (10%), penicillin (100 U/ml) and streptomycin (100 μg/ml).
(§2) B16-F10, Moser, HCT-116 and P388 cells were harvested and implanted into wells of a 96-well (for B16-F10, Moser and HCT-116 cells) or a 24-well (for P388 cells) tissue culture plate with test materials at the inoculum sizes of 3×10^4, 6 ×10^4, 6×10^4 and 2×10^4 cells/ml, respectively. They were incubated at 37° C. in a humidified atmosphere of 5% CO2 and 95% air for 72 hrs. […] For P388 cells, the number of viable cells was determined by a Coulter counter.

[2] = test system: Moser (human colorectal carcinoma) cells; assay: In vitro cytotoxicity (Table 6)
Procedure: as §1, §2

[3] = test system: Trichophyton mentagrophytes D155; assay: In vitro antifungal activity, serial agar dilution; conditions: D155, 40 h, pH 7
Procedure: as §3

[4] = test system: HCT-116 (human colon carcinoma) cells; assay: In vitro cytotoxicity (Table 6); type: cell-based; conditions: HCT-116, 72 hrs, neutral red
Procedure: as §1, §2

[5] = test system: P388 (murine lymphocytic leukemia) cells; assay: In vitro cytotoxicity (Table 6); type: cell-based; conditions: Mus musculus; P388, 72 hrs, Coulter counter
Procedure: as §1, §2

[6] = test system: B16-F10 (murine melanoma) cells; assay: In vitro cytotoxicity (Table 6); type: cell-based; conditions: Mus musculus; B16-F10, 72 hrs, neutral red
Procedure: as §1, §2

[7] = test system: Aspergillus fumigatus IAM2530; assay: In vitro antifungal activity, serial agar dilution; conditions: IAM2530, 40 h, pH 7
Procedure: as §3

[8] = test system: Cryptococcus neoformans D49; assay: In vitro antifungal activity, serial agar dilution; conditions: D49, 40 h, pH 7
Procedure: as §3

fungi = assay: In vitro antifungal activity, overall statement; conditions: various fungi
Procedure: as §3

C. albicans A9540 = assay: In vitro antifungal activity, serial agar dilution; conditions: Candida albicans, A9540, 40 h, pH 7
Procedure: as §3

[9] = test system: Blastomyces dermatidis D40; assay: In vitro antifungal activity, serial agar dilution; conditions: D40, 40 h, pH 7
Procedure: as §3

[10] = test system: DNA biosynthesis in L1210 leukemia cells; assay: Inhibition of macromolecule biosynthesis, DNA (Table 7); type: cell-based, murine
Procedure: Inhibitory effects of BU-3285T on macromolecule biosynthesis (DNA, RNA and protein) were determined in cultured L1210 murine leukemia cells. The cells (5×10^5 cells/ml) were incubated with the compound at 37° C. for 15 minutes and then further incubated for 60 minutes after the addition of labelled precursor, ^3 H-thymidine, ^14 C-uridine or ^3 H-leucine into the cultured mixture. After washing with chilled 5% trichloroacetic acid solution, the radioactivity incorporated into the acid-insoluble fraction of the cells was determined by a liquid scintillation counter.

[11] = test system: Sporothrix schenckii IF08158; assay: microbe, parasite or virus in culture; conditions: IF08158, 40 h, pH 7
Procedure: as §3

Candida albicans IAM4888 = assay: In vitro antifungal activity, serial agar dilution; conditions: IAM4888, 40 h, pH 7
Procedure: as §3

B16 melanoma = assay: In vivo antitumor activity against B16 melanoma (Table 10)
Procedure: Female CDF1 mice were intraperitoneally inoculated with 0.4 ml of diluted ascitic fluid containing 10^6 lymphocytic leukemia P388 cells or 10^5 lymphoid leukemia L1210 cells and male BDF1 mice were intraperitoneally inoculated with 0.5 ml of 10% melanotic melanoma B16 brei.

`CCCCC/C=C/C=C\C=C/C(O)C(C)C(C/C=C/C1OC(=O)C=CC1O)OS(=O)(=O)O` (stereo not drawn) [BU-3285T] was tested, and the MIC (A. flavus FA21436) was 50 µg/mL (≈ 106 µM), the IC50 ([1]; Mus musculus, P388/VCR, 72 h) was 4.4 µg/mL (≈ 9.35 µM) and the “cytotoxicity against P388/VCR compared with parent cells” value ([1]; vs P388 parent) was “almost the same cytotoxicity”. The IC50 ([2]; Homo sapiens, 72 h) was 0.85 µg/mL (≈ 1.81 µM), the “cytotoxic activity, comparison among cell lines” value ([2]; among B16-F10, HCT-116 and Moser) was “most potent cytotoxic activity against Moser cells” and the MIC [3] was 25 µg/mL (≈ 53.1 µM). It also gave an IC50 [4] of 3.4 µg/mL (≈ 7.23 µM), an IC50 [5] of 3.8 µg/mL (≈ 8.08 µM) and an IC50 [6] of 13.3 µg/mL (≈ 28.3 µM). For the same molecule, the MIC [7] was 25 µg/mL (≈ 53.1 µM), the MIC [8] was 1.6 µg/mL (≈ 3.4 µM) and the “antifungal activity in vitro” value (fungi) was “exhibits in vitro antifungal activity”. The “antifungal activity in vitro” value (fungi; listed as BU-3285 T) was “relatively good and broad antifungal profile”, the MIC (C. albicans A9540) was 25 µg/mL (≈ 53.1 µM) and the MIC [9] was 12.5 µg/mL (≈ 26.6 µM). For the same molecule, the IC50 ([10]; Mus musculus, L1210, 3H-thymidine, ^14 C-uridine or 3H-leucine precursor, 15 min + 60 min, 37° C., read-out: IC50, DNA synthesis) was over 100 µg/mL, the “inhibitory effect on DNA synthesis” value ([10]; at 100 μg/ml, the highest concentration tested) was “no significant inhibitory effect” and the MIC [11] was 100 µg/mL (≈ 213 µM). For the same molecule, the MIC (Candida albicans IAM4888) was 25 µg/mL (≈ 53.1 µM), the “activity compared with mitomycin C” value (B16 melanoma; B16, in terms of minimum effective dose) was “somewhat weaker” and the “in vivo antitumor activity” value (B16 melanoma; B16 melanoma in mice) was “potent in vivo inhibitory activity; also recorded: good antitumor activity”.

— patent publication US5036008A, “Antitumor antibiotic BU-3285T” (Bristol-Myers Company, priority 1990, dated 1991)
